Laboratory results from the supplement of paper PMC10307832.

Legend:
Assay in all cases: relative viability (nuclei count vs DMSO), 5 days (fraction); higher = more cells survive
Doramapimod + Linsitinib = compound: Cc1ccc(-n2nc(C(C)(C)C)cc2NC(=O)Nc2ccc(OCCN3CCOCC3)c3ccccc23)cc1 [Doramapimod] + C[C@]1(O)C[C@@H](c2nc(-c3ccc4ccc(-c5ccccc5)nc4c3)c3c(N)nccn32)C1 [Linsitinib] (partner 1 µM)
In short: (§1)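 Lung cancer cell lines were seeded in 1536-well plates and dosed by pin tool the next day, with either a single drug or a fixed anchor-drug dose combined with five library-drug doses (not always all listed) spaced in √10 steps. Five days later, one step fixed the cells and stained their nuclei (final 0.05% Triton X-100, 1% formaldehyde, 1 ug/ml Hoechst), and nuclei were counted on 4× images. Relative viability is the nuclei count in treated wells divided by the count in vehicle wells, and each value is the median of duplicate plates.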

[1] = compound: Cc1ccc(-n2nc(C(C)(C)C)cc2NC(=O)Nc2ccc(OCCN3CCOCC3)c3ccccc23)cc1 [Doramapimod] + CC(=O)c1c(C)c2cnc(Nc3ccc(N4CCNCC4)cn3)nc2n(C2CCCC2)c1=O [Palbociclib] (partner 0.5 µM)
In short: as §1

RAF265 + Linsitinib = compound: Cn1c(Nc2ccc(C(F)(F)F)cc2)nc2cc(Oc3ccnc(-c4ncc(C(F)(F)F)[nH]4)c3)ccc21 [RAF265] + C[C@]1(O)C[C@@H](c2nc(-c3ccc4ccc(-c5ccccc5)nc4c3)c3c(N)nccn32)C1 [Linsitinib] (partner 1 µM)
In short: as §1

Doramapimod + Vorinostat = compound: Cc1ccc(-n2nc(C(C)(C)C)cc2NC(=O)Nc2ccc(OCCN3CCOCC3)c3ccccc23)cc1 [Doramapimod] + O=C(CCCCCCC(=O)Nc1ccccc1)NO [Vorinostat] (partner 1 µM)
In short: as §1

Row | Cell Line | relative viability (Doramapimod + Linsitinib; first compound 0.02 µM) | relative viability (Doramapimod + Linsitinib; first compound 0.06325 µM) | relative viability (Doramapimod + Linsitinib; first compound 0.2 µM) | relative viability (Doramapimod + Linsitinib; first compound 0.6325 µM) | relative viability (Doramapimod + Linsitinib; first compound 2 µM) | relative viability ([1]; first compound 0.02 µM) | relative viability ([1]; first compound 0.06325 µM) | relative viability ([1]; first compound 0.2 µM) | relative viability ([1]; first compound 0.6325 µM) | relative viability ([1]; first compound 2 µM) | relative viability (RAF265 + Linsitinib; first compound 0.01 µM) | relative viability (RAF265 + Linsitinib; first compound 0.03162 µM) | relative viability (RAF265 + Linsitinib; first compound 0.1 µM) | relative viability (RAF265 + Linsitinib; first compound 1 µM) | relative viability (Doramapimod + Vorinostat; first compound 0.02 µM) | relative viability (Doramapimod + Vorinostat; first compound 0.06325 µM) | relative viability (Doramapimod + Vorinostat; first compound 0.2 µM) | relative viability (Doramapimod + Vorinostat; first compound 0.6325 µM) | relative viability (Doramapimod + Vorinostat; first compound 2 µM) | relative viability (RAF265 + Linsitinib; first compound 0.3162 µM)
1 | HCC-827 | 1 | 0.918 | 0.952 | 0.933 | 0.752 | 0.456 | 0.479 | 0.493 | 0.475 | 0.329 | 0.968 | 0.973 | 0.978 | 0.762 | 0.854 | 1.02 | 0.805 | 0.85 | 0.554 | 
2 | EMC-BAC-2 | 0.793 | 0.821 | 0.789 | 0.86 | 0.834 | 0.512 | 0.501 | 0.508 | 0.503 | 0.465 | 0.761 | 0.793 | 0.734 | 0.348 | 0.49 | 0.867 | 0.78 | 0.256 | 0.433 | 0.596
3 | NCI-H520 | 0.937 | 1.11 | 0.838 | 0.963 | 0.897 | 0.214 | 0.222 | 0.21 | 0.213 | 0.214 | 0.941 | 0.949 | 0.939 | 0.631 | 0.672 | 0.755 | 0.653 | 0.731 | 0.609 | 0.912
4 | NCI-H1755 | 0.982 | 1 | 1.02 | 1.05 | 0.996 | 0.478 | 0.484 | 0.444 | 0.416 | 0.418 | 0.959 | 1.06 | 0.988 | 0.579 | 0.798 | 0.748 | 0.619 | 0.768 | 0.687 | 0.825
5 | NCI-H1993 | 0.663 | 0.708 | 0.795 | 0.753 | 0.755 | 0.641 | 0.58 | 0.621 | 0.596 | 0.504 | 0.68 | 0.763 | 0.66 | 0.722 | 0.835 | 0.723 | 0.819 | 1.18 | 0.834 | 0.713
6 | NCI-H23 | 0.648 | 0.528 | 0.511 | 0.664 | 0.565 | 0.458 | 0.485 | 0.482 | 0.52 | 0.568 | 0.668 | 0.541 | 0.437 | 0.202 | 0.633 | 0.563 | 0.554 | 0.656 | 0.473 | 0.321
7 | NCI-H1437 | 1.03 | 0.982 | 0.968 | 1.17 | 0.947 | 0.337 | 0.31 | 0.278 | 0.368 | 0.304 | 1.09 | 1.01 | 1.08 | 0.945 | 0.789 | 0.912 | 0.836 | 0.855 | 0.688 | 1
8 | SK-MES-1 | 1.08 | 1 | 0.996 | 1.09 | 0.909 | 0.316 | 0.288 | 0.341 | 0.316 | 0.269 | 1.14 | 0.926 | 0.947 | 0.249 | 1.21 | 1.09 | 1.07 | 1.12 | 1.11 | 0.562
9 | NCI-H2405 | 0.973 | 0.869 | 0.933 | 1.27 | 0.852 | 0.531 | 0.487 | 0.505 | 0.575 | 0.495 | 0.993 | 0.884 | 1.03 | 0.378 | 1.1 | 1.12 | 1.22 | 0.958 | 1.02 | 0.852
10 | NCI-H2023 | 0.626 | 0.718 | 0.533 | 0.738 | 0.575 | 0.299 | 0.367 | 0.296 | 0.392 | 0.323 | 0.588 | 0.743 | 0.776 | 0.424 | 0.718 | 0.664 | 0.556 | 0.607 | 0.519 | 0.644
11 | NCI-H838 | 0.9 | 1.04 | 1.02 | 1.1 | 0.994 | 0.218 | 0.217 | 0.203 | 0.225 | 0.199 | 1.12 | 1.01 | 1.02 | 0.77 | 0.749 | 0.749 | 0.766 | 0.808 | 0.726 | 1.03
12 | NCI-H661 | 0.634 | 0.568 | 0.555 | 0.741 | 0.599 | 0.447 | 0.407 | 0.404 | 0.427 | 0.39 | 0.589 | 0.412 | 0.686 | 0.33 | 0.815 | 0.74 | 0.797 | 0.788 | 0.767 | 0.455
13 | NCI-H1734 | 0.864 | 0.755 | 0.721 | 0.767 | 0.662 | 0.204 | 0.308 | 0.314 | 0.299 | 0.27 | 1.02 | 0.883 | 0.717 | 0.421 | 0.705 | 0.739 | 0.665 | 0.94 | 0.621 | 0.676
